Experimental data from US20240165123A1, “USE OF A COMPOUND CONTAINING A TRICYCLIC HETEROARYL GROUP” (CSPC Zhongqi Pharmaceutical Technology (Shijiazhuang) Co., …, priority 2021, published 2024).

Assays:
[1] = system: IMQ-induced mouse psoriasis model; experiment: Pharmacodynamic test in the IMQ-induced mouse psoriasis model; type: in vivo, female Balb/c mice; design: key to Skin PASI score Erythema / Skin PASI score Scaling / Skin PASI score Thickness: PASI component score, 0-4 points; key to Skin PASI Total Score: sum of erythema, scaling, thickness scores (each 0-4); key to Skin pathological score: sum of histopathology criterion points; conditions: for Epidermal thickness / IL-6 content in skin (ELISA) / Skin pathological score / Spleen weight / Spleen weight/body weight (spleen index) / TNF-alpha content in skin (ELISA): after 14 days of treatment
Excerpt: The purpose of this test was to evaluate the pharmacodynamics of Compound (I) in the IMQ (5% imiquimod cream cream)-induced mouse psoriasis model. One of the clinical adverse effects of imiquimod is to induce the onset of psoriasis.
• Test medicament: Compound (I) • Positive control medicament: dexamethasone (Dex) • Vehicle: 0.4% Tween 80/0.5% methylcellulose.
• female Balb/c mice aged 5-6 weeks, number: 70.
The animals were randomly divided into seven groups according to the body weights on the day before the start of the experiment.
The animals were shaved on their back one day before applying the medicament, forming a skin exposure area having a size of about 2 cm×3 cm. The mice were induced by IMQ, and applied with 62.5 mg of 5% imiquimod cream on the bare back and the right ear at regular intervals every day for 14 days. Mice in the normal control group were applied with vaseline on the bare back and the right ear at regular intervals every day.
The skin thickness was measured daily from the first day of the test until the end of the test.
The skin thickness measurement method was as follows: the back skin and the subcutaneous tissue of the mouse were pinched with the thumb and the index finger of the left hand in the same direction as the mouse body; the skinfold thickness was measured 1 cm away from the pinched part of the left hand (near the center of the molding part) with a digital thickness gauge (with millesimal reading) held in the right hand (model BK-3281, manufacturer: Shanghai Niuhui). The thickness was in mm, and the actual thickness was the half of the measured thickness (the skin thickness=the measured value/2).
The ear thickness was measured daily (at the center of the auricle).
Skin photographs were taken daily from the first day of the test until the end of the test.
The clinical symptoms were evaluated with the PASI evaluation standard from three indicators of the erythema (Erythema), the scale (Scaling) and the skin thickness (Thickness), and scored with 0-4 points. The total score was obtained by summing the three scores. The PASI evaluation standard was as follows: 0, asymptomatic; 1, mild; 2, moderate; 3, severe; 4, extremely severe.
Erythema: 0—no erythema visible; 1—light red; 2—red; 3—dark red; 4—extremely dark red.
Scaling: 0—no visible scale on the skin surface; 1—part of the skin lesion surface covered with scales; 2—most of the skin lesion surface covered with scales; 3—almost all of the skin lesion region covered with scales; 4—all of the skin lesion region covered with scales.
Dryness and pruritus are not included in the total score.
On the 14th day of the test, the spleen weight was collected.
After the test, all mice were euthanized by excessive inhalation of carbon dioxide. The skin was collected and divided into four parts, one of which was fixed in a tissue fixative solution for 24 hours for the pathological is detection. It was dehydrated, then embedded in paraffin and made into 4-micron sections. Skin sections were stained with hematoxylin eosin to observe the infiltration of the stratum corneum, the epidermal layer, the dermis layer and the inflammatory cell. When measuring the thickness of the epidermal layer, the stained skin sections were scanned with a Leca Aperio CS2 scanner at 200×magnification, and then the histopathological changes were observed and scored.
The specific criteria of the pathological score were as follows: munro microabscess found in the epidermal layer 2.0 points; hyperkeratosis 0.5 points; parakeratosis 1.0 points; the thinning or disappearing of the granular layer 1.0 points; the thickening of acanthosis 1.0 points; the extension and fluctuation of cuticular process 0.5, 1.0 and 1.5 points respectively according to the mild, moderate and severe degrees. […]

[2] = Rat effective dose for safety window calculation; type: in vivo

With `NC(=O)c1cnc(Nc2ccc3c(c2)OC[C@H]2CN(S(=O)(=O)C4CC4)CCN32)nc1NC1CC1` [Compound (I), (R)-4-(cyclopropylamino)-2-((3-(cyclopropylsulfonyl)-1,2,3,4,4a,5-hexahydrobenzo[b]pyrazolo[1,2-d][1,4]oxazin-8-yl)amino)pyrimidine-5-arboxamide] the “Ear thickness Left” value ([1]; 3 mpk PO bid, 1st Day) was 0.15 ± 0.00 mm, the “Ear thickness Right” value ([1]; 3 mpk PO bid, 1st Day) was 0.15 ± 0.00 mm and the “Ear thickness Right-Left” value ([1]; 3 mpk PO bid, 1st Day) was 0.00 ± 0.00 mm. For the same molecule, the “Skin PASI Total Score” value ([1]; 3 mpk PO bid, 1st Day) was 0.00 ± 0.00, the “Skin PASI score Erythema” value ([1]; 3 mpk PO bid, 1st Day) was 0.00 ± 0.00 and the “Skin PASI score Scaling” value ([1]; 3 mpk PO bid, 1st Day) was 0.00 ± 0.00. For the same molecule, the “Skin PASI score Thickness” value ([1]; 3 mpk PO bid, 1st Day) was 0.00 ± 0.00, the Skin thickness ([1]; 3 mpk PO bid, 1st Day) was 0.32 ± 0.00 mm and the “Ear thickness Left” value ([1]; 3 mpk PO bid, 14th Day) was 0.16 ± 0.00 mm. The “Ear thickness Right” value ([1]; 3 mpk PO bid, 14th Day) was 0.48 ± 0.01 mm, the “Ear thickness Right-Left” value ([1]; 3 mpk PO bid, 14th Day) was 0.32 ± 0.01 mm and the “Skin PASI Total Score” value ([1]; 3 mpk PO bid, 14th Day) was 8.10 ± 0.23. For the same molecule, the “Skin PASI score Erythema” value ([1]; 3 mpk PO bid, 14th Day) was 3.00 ± 0.00, the “Skin PASI score Scaling” value ([1]; 3 mpk PO bid, 14th Day) was 2.30 ± 0.15 and the “Skin PASI score Thickness” value ([1]; 3 mpk PO bid, 14th Day) was 2.80 ± 0.13. The Skin thickness ([1]; 3 mpk PO bid, 14th Day) was 0.51 ± 0.01 mm, the Epidermal thickness ([1]; 3 mpk PO bid) was 136.10 ± 5.96 μm and the “IL-6 content in skin (ELISA)” value ([1]; 3 mpk PO bid) was 554.74 ± 88.14 pg/g. The Skin pathological score ([1]; 3 mpk PO bid) was 7.75 ± 0.39, the Spleen weight ([1]; 3 mpk PO bid) was 231.44 ± 12.72 mg and the “Spleen weight/body weight (spleen index)” value ([1]; 3 mpk PO bid) was 14.46 ± 0.71 mg/g. For the same molecule, the “TNF-alpha content in skin (ELISA)” value ([1]; 3 mpk PO bid) was 1191.74 ± 124.81 pg/g, the “Ear thickness Left” value ([1]; 10 mpk PO bid, 1st Day) was 0.14 ± 0.00 mm and the “Ear thickness Right” value ([1]; 10 mpk PO bid, 1st Day) was 0.14 ± 0.00 mm. For the same molecule, the “Ear thickness Right-Left” value ([1]; 10 mpk PO bid, 1st Day) was 0.00 ± 0.00 mm, the “Skin PASI Total Score” value ([1]; 10 mpk PO bid, 1st Day) was 0.00 ± 0.00 and the “Skin PASI score Erythema” value ([1]; 10 mpk PO bid, 1st Day) was 0.00 ± 0.00. The “Skin PASI score Scaling” value ([1]; 10 mpk PO bid, 1st Day) was 0.00 ± 0.00, the “Skin PASI score Thickness” value ([1]; 10 mpk PO bid, 1st Day) was 0.00 ± 0.00 and the Skin thickness ([1]; 10 mpk PO bid, 1st Day) was 0.32 ± 0.00 mm. The “Ear thickness Left” value ([1]; 10 mpk PO bid, 14th Day) was 0.15 ± 0.00 mm, the “Ear thickness Right” value ([1]; 10 mpk PO bid, 14th Day) was 0.44 ± 0.00 mm and the “Ear thickness Right-Left” value ([1]; 10 mpk PO bid, 14th Day) was 0.28 ± 0.00 mm. For the same molecule, the “Skin PASI Total Score” value ([1]; 10 mpk PO bid, 14th Day) was 7.70 ± 0.60, the “Skin PASI score Erythema” value ([1]; 10 mpk PO bid, 14th Day) was 2.90 ± 0.10 and the “Skin PASI score Scaling” value ([1]; 10 mpk PO bid, 14th Day) was 2.40 ± 0.27. The “Skin PASI score Thickness” value ([1]; 10 mpk PO bid, 14th Day) was 2.40 ± 0.27, the Skin thickness ([1]; 10 mpk PO bid, 14th Day) was 0.53 ± 0.02 mm and the Epidermal thickness ([1]; 10 mpk PO bid) was 131.63 ± 7.15 μm. For the same molecule, the “IL-6 content in skin (ELISA)” value ([1]; 10 mpk PO bid) was 641.83 ± 96.28 pg/g, the Skin pathological score ([1]; 10 mpk PO bid) was 7.45 ± 0.80 and the Spleen weight ([1]; 10 mpk PO bid) was 182.01 ± 9.11 mg. For the same molecule, the “Spleen weight/body weight (spleen index)” value ([1]; 10 mpk PO bid) was 11.71 ± 0.56 mg/g, the “TNF-alpha content in skin (ELISA)” value ([1]; 10 mpk PO bid) was 1432.02 ± 152.77 pg/g and the “Ear thickness Left” value ([1]; 30 mpk PO bid, 1st Day) was 0.14 ± 0.00 mm. The “Ear thickness Right” value ([1]; 30 mpk PO bid, 1st Day) was 0.14 ± 0.00 mm, the “Ear thickness Right-Left” value ([1]; 30 mpk PO bid, 1st Day) was 0.00 ± 0.00 mm and the “Skin PASI Total Score” value ([1]; 30 mpk PO bid, 1st Day) was 0.00 ± 0.00. For the same molecule, the “Skin PASI score Erythema” value ([1]; 30 mpk PO bid, 1st Day) was 0.00 ± 0.00, the “Skin PASI score Scaling” value ([1]; 30 mpk PO bid, 1st Day) was 0.00 ± 0.00 and the “Skin PASI score Thickness” value ([1]; 30 mpk PO bid, 1st Day) was 0.00 ± 0.00. The Skin thickness ([1]; 30 mpk PO bid, 1st Day) was 0.32 ± 0.00 mm, the “Ear thickness Left” value ([1]; 30 mpk PO bid, 14th Day) was 0.16 ± 0.00 mm and the “Ear thickness Right” value ([1]; 30 mpk PO bid, 14th Day) was 0.41 ± 0.01 mm. The “Ear thickness Right-Left” value ([1]; 30 mpk PO bid, 14th Day) was 0.26 ± 0.01 mm, the “Skin PASI Total Score” value ([1]; 30 mpk PO bid, 14th Day) was 5.50 ± 0.31 and the “Skin PASI score Erythema” value ([1]; 30 mpk PO bid, 14th Day) was 2.90 ± 0.10. The “Skin PASI score Scaling” value ([1]; 30 mpk PO bid, 14th Day) was 1.20 ± 0.13, the “Skin PASI score Thickness” value ([1]; 30 mpk PO bid, 14th Day) was 1.40 ± 0.16 and the Skin thickness ([1]; 30 mpk PO bid, 14th Day) was 0.50 ± 0.01 mm. The Epidermal thickness ([1]; 30 mpk PO bid) was 121.75 ± 8.17 μm, the “IL-6 content in skin (ELISA)” value ([1]; 30 mpk PO bid) was 638.09 ± 59.63 pg/g and the Skin pathological score ([1]; 30 mpk PO bid) was 5.55 ± 0.90. For the same molecule, the Spleen weight ([1]; 30 mpk PO bid) was 146.81 ± 7.71 mg, the “Spleen weight/body weight (spleen index)” value ([1]; 30 mpk PO bid) was 9.27 ± 0.47 mg/g and the “TNF-alpha content in skin (ELISA)” value ([1]; 30 mpk PO bid) was 1236.41 ± 100.8 pg/g. For the same molecule, the “Ear thickness Left” value ([1]; 60 mpk PO bid, 1st Day) was 0.14 ± 0.00 mm, the “Ear thickness Right” value ([1]; 60 mpk PO bid, 1st Day) was 0.14 ± 0.00 mm and the “Ear thickness Right-Left” value ([1]; 60 mpk PO bid, 1st Day) was 0.00 ± 0.00 mm. The “Skin PASI Total Score” value ([1]; 60 mpk PO bid, 1st Day) was 0.00 ± 0.00, the “Skin PASI score Erythema” value ([1]; 60 mpk PO bid, 1st Day) was 0.00 ± 0.00 and the “Skin PASI score Scaling” value ([1]; 60 mpk PO bid, 1st Day) was 0.00 ± 0.00. The “Skin PASI score Thickness” value ([1]; 60 mpk PO bid, 1st Day) was 0.00 ± 0.00, the Skin thickness ([1]; 60 mpk PO bid, 1st Day) was 0.33 ± 0.01 mm and the “Ear thickness Left” value ([1]; 60 mpk PO bid, 14th Day) was 0.15 ± 0.00 mm. The “Ear thickness Right” value ([1]; 60 mpk PO bid, 14th Day) was 0.38 ± 0.01 mm, the “Ear thickness Right-Left” value ([1]; 60 mpk PO bid, 14th Day) was 0.22 ± 0.01 mm and the “Skin PASI Total Score” value ([1]; 60 mpk PO bid, 14th Day) was 4.60 ± 0.34. For the same molecule, the “Skin PASI score Erythema” value ([1]; 60 mpk PO bid, 14th Day) was 2.00 ± 0.15, the “Skin PASI score Scaling” value ([1]; 60 mpk PO bid, 14th Day) was 1.20 ± 0.13 and the “Skin PASI score Thickness” value ([1]; 60 mpk PO bid, 14th Day) was 1.40 ± 0.16. The Skin thickness ([1]; 60 mpk PO bid, 14th Day) was 0.43 ± 0.02 mm, the Epidermal thickness ([1]; 60 mpk PO bid) was 113.28 ± 6.95 μm and the “IL-6 content in skin (ELISA)” value ([1]; 60 mpk PO bid) was 499.72 ± 95.81 pg/g. The Skin pathological score ([1]; 60 mpk PO bid) was 5.05 ± 0.88, the Spleen weight ([1]; 60 mpk PO bid) was 125.73 ± 4.63 mg and the “Spleen weight/body weight (spleen index)” value ([1]; 60 mpk PO bid) was 8.01 ± 0.28 mg/g. For the same molecule, the “TNF-alpha content in skin (ELISA)” value ([1]; 60 mpk PO bid) was 1188.81 ± 159.63 pg/g, the AUC ([2]; in vivo, rat effective dose 3 mg/kg/time BID) was 4310 ng·h/mL and the “Safety window, dose method” value ([2]; rat effective dose (reference)) was 1 fold. For the same molecule, the “Effective dose for rats” value ([2]; rats) was 3 mg/kg/time bid.
